Experimental data as given in patent US6949648B2, “Condensed pyrazole derivatives, process for producing the same and use thereof” (Takeda Pharmaceutical Company Limited, priority 2000, dated 2005).
Where a name gives a salt, the structure may show the parent alone.

COC(=O)c1ccc2c(=O)c3c(C)nn(-c4ccccn4)c3[nH]c2c1 [Example 2-67, Methyl 3-methyl-4-oxo-1-(2-pyridinyl)-4,9-dihydro-1H-pyrazolo[3,4-b]quinoline-7-carboxylate]
melting point: 251 to 252 °C

CCCCN(C)c1c2ccccc2nc2c1c(C)nn2-c1ccccn1 [Example 2-10, N-Butyl-N-methyl-[3-methyl-1-(2-pyridinyl)-1H-pyrazolo[3,4-b]quinolin-4-yl]amine]
melting point: 85 to 87 °C

Cc1nn(-c2ccccn2)c2nc3ccccc3c(OCC(C)C)c12 [Example 2-20, 4-Isobutoxy-3-methyl-1-(2-pyridinyl)-1H-pyrazolo[3,4-b]quinoline]
melting point: 117 to 120 °C

CCOc1cccc(-n2nc(C)c3c(Cl)c4c(C)cccc4nc32)n1 [Example 2-121, 4-Chloro-3,5-dimethyl-1-(6-ethoxy-2-pyridinyl)-1H-pyrazolo[3,4-b]quinoline]
melting point: 146 to 148 °C

Cc1nn(-c2ccccn2)c2[nH]c3c(c(=O)c12)CCCCC3 [Example 2-195, 3-Methyl-1-(2-pyridinyl)-5,6,7,8,9,10-hexahydrocyclohepta[b]pyrazolo[4,3-e]pyridin-4(1H)-one]
melting point: 184 to 185 °C

Cc1nn(-c2cccc(Cl)n2)c2[nH]c3ccccc3c(=O)c12 [Example 2-110, 1-(6-Chloro-2-pyridinyl)-3-methyl-1,9-dihydro-4H-pyrazolo[3,4-b]quinolin-4-one]
melting point: 251 to 253 °C

Cc1nn(-c2ccccn2)c2c1c(=O)c1ccccc1n2C [Example 2-14, 3,9-Dimethyl-1-(2-pyridinyl)-1,9-dihydro-4H-pyrazolo[3,4-b]quinolin-4-one]
melting point: 192 to 193 °C

Cc1nn(-c2ccccn2)c2nc3cc([N+](=O)[O-])ccc3c(Cl)c12 [Example 2-57, 4-Chloro-3-methyl-7-nitro-1-(2-pyridinyl)-1H-pyrazolo[3,4-b]quinoline]
melting point: 226 to 227 °C

CCc1nn(-c2ccccn2)c2nc3ccccc3c(N)c12.Cl
melting point: 249 to 252 °C

Cc1cccc(-n2nc(C)c3c(Cl)c4ccccc4nc32)n1 [Example 2-207, 4-Chloro-3-methyl-1-(6-methyl-2-pyridinyl)-1H-pyrazolo[3,4-b]quinoline]
melting point: 154 °C

Cc1cccnc1-n1nc(C)c2c(=O)c3ccccc3[nH]c21 [Example 2-120, 3-Methyl-1-(3-methyl-2-pyridinyl)-1,9-dihydro-4H-pyrazolo[3,4-b]quinolin-4-one]
melting point: 184 to 185 °C

CCc1nn(-c2ccccn2)c2nc3cc(F)c(F)cc3c(Cl)c12 [Example 2-200, 4-Chloro-3-ethyl-6,7-difluoro-1-(2-pyridinyl)-1H-pyrazolo[3,4-b]quinoline]
melting point: 160 to 161 °C

Cc1nn(-c2ccccn2)c2nc3ccc(Cl)cc3c(Cl)c12 [Example 2-70, 4,6-Dichloro-3-methyl-1-(2-pyridinyl)-1H-pyrazolo[3,4-b]quinoline]
melting point: 233 to 235 °C

O=c1c2ccccc2[nH]c2c1c(C(F)(F)F)nn2-c1ccccn1 [Example 2-167, 1-(2-Pyridinyl)-3-trifluoromethyl-1,9-dihydro-4H-pyrazolo[3,4-b]quinolin-4-one]
melting point: 231 to 233 °C

COc1ccc2[nH]c3c(c(C)nn3-c3ccccn3)c(=O)c2c1 [Example 2-43, 6-Methoxy-3-methyl-1-(2-pyridinyl)-1,9-dihydro-4H-pyrazolo[3,4-b]quinolin-4-one]
melting point: 227 to 229 °C

Cc1cccc2c(N)c3c(C)nn(-c4ccccn4)c3nc12.Cl
melting point: 283 to 286 °C

Cc1nn(-c2ncccn2)c2nc3ccccc3c(N)c12.Cl
melting point: 287 to 290 °C

Cc1nn(-c2ccccn2)c2nc3cc(Cl)c(Cl)cc3c(Cl)c12 [Example 2-75, 4,6,7-Trichloro-3-methyl-1-(2-pyridinyl)-1H-pyrazolo[3,4-b]quinoline]
melting point: 213 to 214 °C

CCOc1c2ccccc2nc2c1c(C)nn2-c1ccccn1 [Example 2-16, 4-Ethoxy-3-methyl-1-(2-pyridinyl)-1H-pyrazolo[3,4-b]quinoline]
melting point: 121 to 123 °C

Cc1nn(-c2ncccn2)c2nc3ccccc3c(Cl)c12 [Example 2-144, 4-Chloro-3-methyl-1-(2-pyrimidinyl)-1H-pyrazolo[3,4-b]quinoline]
melting point: 257 to 260 °C

O=c1c2cc(F)ccc2[nH]c2c1cnn2-c1ccccn1 (as salt: salt) [Example 2-165, 6-Fluoro-1-(2-pyridinyl)-1,9-dihydro-4H-pyrazolo[3,4-b]quinolin-4-one]
melting point: 263 to 266 °C

CCOc1cccc(-n2nc(C)c3c(=O)c4c(C)cccc4[nH]c32)n1 [Example 2-122, 3,5-Dimethyl-1-(6-ethoxy-2-pyridinyl)-1,9-dihydro-4H-pyrazolo[3,4-b]quinolin-4-one]
melting point: 213 to 215 °C

COc1ccc(-c2nn(-c3ccccn3)c3[nH]c4ccccc4c(=O)c23)cc1 [Example 2-185, 3-(4-Methoxyphenyl)-1-(2-pyridinyl)-1,9-dihydro-4H-pyrazolo[3,4-b]quinolin-4-one]
melting point: 197 to 199 °C

Cc1nn(-c2ccccn2)c2nc3ccc(C(F)(F)F)cc3c(Cl)c12 [Example 2-39, 4-Chloro-3-methyl-1-(2-pyridinyl)-6-(trifluoromethyl)-1H-pyrazolo[3,4-b]quinoline]
melting point: 206 °C

Cc1nn(-c2ccccn2)c2[nH]c3cc(Cl)c(Cl)cc3c(=O)c12 [Example 2-76, 6,7-Dichloro-3-methyl-1-(2-pyridinyl)-1,9-dihydro-4H-pyrazolo[3,4-b]quinolin-4-one]
melting point: 303 to 304 °C

COc1c2ccccc2nc2c1c(C)nn2Cc1ccccn1 [Example 2-190, 4-Methoxy-3-methyl-1-(2-pyridinylmethyl)-1H-pyrazolo[3,4-b]quinoline]
melting point: 111 to 113 °C

Cc1nn(-c2cccc(Cl)n2)c2nc3ccccc3c(Cl)c12 [Example 2-109, 4-Chloro-1-(6-chloro-2-pyridinyl)-3-methyl-1H-pyrazolo[3,4-b]quinoline]
melting point: 191 to 193 °C

CCOc1cccc(-n2nc(C)c3c(N)c4cccc(C)c4nc32)n1 [Example 2-129, 3,8-Dimethyl-1-(6-ethoxy-2-pyridinyl)-1H-pyrazolo[3,4-b]quinolin-4-ylamine]
melting point: 184 to 187 °C

COC(=O)c1ccc2c(Cl)c3c(C)nn(-c4ccccn4)c3nc2c1 [Example 2-66, Methyl 4-chloro-3-methyl-1-(2-pyridinyl)-1H-pyrazolo[3,4-b]quinoline-7-carboxylate]
melting point: 239 to 240 °C

FC(F)(F)c1nn(-c2ccccn2)c2nc3ccccc3c(Cl)c12 [Example 2-166, 4-Chloro-1-(2-pyridinyl)-3-trifluoromethyl-1H-pyrazolo[3,4-b]quinoline]
melting point: 166 to 168 °C

Cc1ccc(-n2nc(C)c3c(N)c4cccc(C)c4nc32)nc1 [Example 2-132, 3,8-Dimethyl-1-(5-methyl-2-pyridinyl)-1H-pyrazolo[3,4-b]quinolin-4-ylamine]
melting point: 257 to 260 °C

COc1cccc2c(N)c3c(C)nn(-c4ccccn4)c3nc12.Cl
melting point: 248 to 251 °C

Fc1cc2nc3c(cnn3-c3ccccn3)c(Cl)c2cc1F [Example 2-198, 4-Chloro-6,7-difluoro-1-(2-pyridinyl)-1H-pyrazolo[3,4-b]quinoline]
melting point: 167 to 168 °C

COC(=O)Cc1nn(-c2ccccn2)c2nc3ccccc3c(Cl)c12 [Example 2-175, Methyl 2-[4-chloro-1-(2-pyridinyl)-1H-pyrazolo[3,4-b]quinolin-3-yl]acetate]
melting point: 152 to 153 °C

COc1cc2[nH]c3c(c(C)nn3-c3ccccn3)c(=O)c2cc1OC [Example 2-48, 6,7-Dimethoxy-3-methyl-1-(2-pyridinyl)-1,9-dihydro-4H-pyrazolo[3,4-b]quinolin-4-one]
melting point: 238 to 239 °C

CCCCNc1c2ccccc2nc2c1c(C)nn2-c1ccccn1 [Example 2-7, N-Butyl-N-[3-methyl-1-(2-pyridinyl)-1H-pyrazolo[3,4-b]quinolin-4-yl]amine]
melting point: 97 to 99 °C

Cc1cccc2c(=O)c3c(C)nn(-c4ccccn4)c3[nH]c12 [Example 2-38, 3,8-Dimethyl-1-(2-pyridinyl)-1,9-dihydro-4H-pyrazolo[3,4-b]quinolin-4-one]
melting point: 241 to 243 °C

Cc1nn(-c2ccccn2)c2ncc(C(=O)Nc3ccccc3)c(O)c12 [Example 1-11, 4-Hydroxy-3-methyl-N-phenyl-1-(2-pyridinyl)-1H-pyrazolo[3,4-b]pyridine-5-carboxamide]
melting point: > 300 °C

Cc1nn(-c2ccccn2)c2nc3ccccc3c(N)c12 [Example 1-35, 3-Methyl-1-(2-pyridinyl)-1H-pyrazolo[3,4-b]quinolin-4-ylamine]
melting point: 210 to 213 °C

Cc1cccc2c(=O)c3c(C)nn(-c4ccc5ccccc5n4)c3[nH]c12 [Example 2-154, 3,8-Dimethyl-1-(2-quinolinyl)-1,9-dihydro-4H-pyrazolo[3,4-b]quinolin-4-one]
melting point: 255 to 257 °C

Cc1nn(-c2ccccn2)c2[nH]c3ccc(F)c(F)c3c(=O)c12 [Example 2-89, 5,6-Difluoro-3-methyl-1-(2-pyridinyl)-1,9-dihydro-4H-pyrazolo[3,4-b]quinolin-4-one]
melting point: 300 to 303 °C

Cc1nn(-c2ccccn2)c2nc3ccc([N+](=O)[O-])cc3c(Cl)c12 [Example 2-53, 4-Chloro-3-methyl-6-nitro-1-(2-pyridinyl)-1H-pyrazolo[3,4-b]quinoline]
melting point: 282 °C

NC(=O)Cc1nn(-c2ccccn2)c2[nH]c3ccccc3c(=O)c12 [Example 2-178, 2-[4-Oxo-1-(2-pyridinyl)-4,9-dihydro-1H-pyrazolo[3,4-b]quinolin-3-yl]acetamide]
melting point: 302 to 305 °C

Cc1cccnc1-n1nc(C)c2c(Cl)c3cccc(C)c3nc21 [Example 2-133, 4-Chloro-3,8-dimethyl-1-(3-methyl-2-pyridinyl)-1H-pyrazolo[3,4-b]quinoline]
melting point: 182 to 185 °C

CCOC(=O)c1cnc2c(c(C)nn2-c2ccccn2)c1N [Example 1-31, Ethyl 4-amino-3-methyl-1-(2-pyridinyl)-1H-pyrazolo[3,4-b]pyridine-5-carboxylate]
melting point: 147 to 149 °C
